A short description of assay [1]: luciferase reporter signal suppression in cells – H4 neuroglioma cells, luminescence, dose response (AID 1990). In kind it is functional, cell-based. On the technique in general: In a reporter assay the amount or activity of a reporter protein is the signal.
Assay [2] has as its target Protein-tyrosine kinase 2-beta (Homo sapiens, UniProt Q14289).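 Note: potency of inhibitors of PYK2 kinase phosphorylation of poly-GT substrate.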
The target in assay [3] is Mitochondrial peptide methionine sulfoxide reductase (Bos taurus, UniProt P54149). The experiment in a line: Absorbance-based biochemical high throughput dose response assay for activators of Methionine sulfoxide reductase A (MsrA). In kind it is functional.
Chain of Mitochondrial peptide methionine sulfoxide reductase (P54149 whole entry): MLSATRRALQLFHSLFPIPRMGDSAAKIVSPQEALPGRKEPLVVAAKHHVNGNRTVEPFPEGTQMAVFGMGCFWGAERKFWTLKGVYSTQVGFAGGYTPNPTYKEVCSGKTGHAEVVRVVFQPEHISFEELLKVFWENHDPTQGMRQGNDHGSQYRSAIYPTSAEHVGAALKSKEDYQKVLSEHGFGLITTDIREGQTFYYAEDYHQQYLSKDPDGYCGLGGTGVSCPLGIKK
Assay [4] has as its target Dual specificity protein phosphatase 3 (Homo sapiens, UniProt P51452). Briefly: VHR1 phosphatase inhibitors, primary screen, biochemical, absorbance, uHTS (AID 1654).
Assay [5] deals with Bifunctional protein GlmU (Mycobacterium tuberculosis, UniProt P9WMN3). Briefly: Inhibitors of Mycobacterial Glucosamine-1-phosphate acetyl transferase (GlmU). Secondary screen. More on the design: species or system Mycobacterium tuberculosis H37Rv.
Chain of Bifunctional protein GlmU (P9WMN3 whole entry): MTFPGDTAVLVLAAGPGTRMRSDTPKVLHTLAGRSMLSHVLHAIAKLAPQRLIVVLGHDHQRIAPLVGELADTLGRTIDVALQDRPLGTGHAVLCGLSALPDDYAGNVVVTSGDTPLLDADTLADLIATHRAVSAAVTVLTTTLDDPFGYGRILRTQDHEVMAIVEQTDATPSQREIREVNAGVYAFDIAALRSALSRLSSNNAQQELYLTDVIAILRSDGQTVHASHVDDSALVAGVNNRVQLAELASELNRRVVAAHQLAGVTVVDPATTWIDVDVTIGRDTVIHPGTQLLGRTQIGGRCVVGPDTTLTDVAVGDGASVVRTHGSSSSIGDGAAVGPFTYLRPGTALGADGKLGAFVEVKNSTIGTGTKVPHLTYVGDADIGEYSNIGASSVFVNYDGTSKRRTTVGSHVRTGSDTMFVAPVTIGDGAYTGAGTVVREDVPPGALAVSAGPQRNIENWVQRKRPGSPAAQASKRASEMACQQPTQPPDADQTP
A further assay addresses T1, ORF 73 (Human herpesvirus 8, UniProt O40947).
T1 sequence (O40947 whole entry): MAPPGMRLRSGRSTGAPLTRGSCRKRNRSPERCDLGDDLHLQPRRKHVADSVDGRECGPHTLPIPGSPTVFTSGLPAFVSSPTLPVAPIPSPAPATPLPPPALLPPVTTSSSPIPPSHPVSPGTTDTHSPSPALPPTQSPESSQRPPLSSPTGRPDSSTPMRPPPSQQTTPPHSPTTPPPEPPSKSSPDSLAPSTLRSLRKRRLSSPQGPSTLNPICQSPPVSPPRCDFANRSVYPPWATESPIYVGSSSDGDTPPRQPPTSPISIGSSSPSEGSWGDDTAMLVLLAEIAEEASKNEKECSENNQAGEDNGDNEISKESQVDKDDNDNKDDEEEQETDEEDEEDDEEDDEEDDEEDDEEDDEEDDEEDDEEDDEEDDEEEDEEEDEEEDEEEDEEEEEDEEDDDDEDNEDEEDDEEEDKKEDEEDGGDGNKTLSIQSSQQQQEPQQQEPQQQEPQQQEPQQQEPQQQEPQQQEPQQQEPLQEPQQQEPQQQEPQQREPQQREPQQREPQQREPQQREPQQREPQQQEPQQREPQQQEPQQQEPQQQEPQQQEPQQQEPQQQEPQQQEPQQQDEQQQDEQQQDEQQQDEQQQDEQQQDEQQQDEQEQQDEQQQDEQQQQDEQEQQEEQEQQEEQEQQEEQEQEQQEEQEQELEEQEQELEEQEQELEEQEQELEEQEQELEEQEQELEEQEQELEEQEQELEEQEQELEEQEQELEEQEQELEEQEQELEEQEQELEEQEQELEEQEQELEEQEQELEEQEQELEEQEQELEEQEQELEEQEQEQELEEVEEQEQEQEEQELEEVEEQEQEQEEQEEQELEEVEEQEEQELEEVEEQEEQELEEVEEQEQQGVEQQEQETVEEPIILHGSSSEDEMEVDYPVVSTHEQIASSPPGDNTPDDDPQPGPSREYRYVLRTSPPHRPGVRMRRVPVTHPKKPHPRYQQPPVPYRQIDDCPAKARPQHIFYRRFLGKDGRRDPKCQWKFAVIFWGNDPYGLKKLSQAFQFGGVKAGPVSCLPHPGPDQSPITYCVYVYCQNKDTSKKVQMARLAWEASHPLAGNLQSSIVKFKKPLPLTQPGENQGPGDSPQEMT
The experiment in a line: KSHV LANA DNA-binding disruption – biochemical, fluorescence polarization, cherry-picked samples, dose response (AID 504725).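 Note: fluorescence polarization of a labeled DNA duplex reporting LANA DNA binding; potency is for inhibitors that block LANA binding to the DNA.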 More on the design: species or system Human gammaherpesvirus 8.

Assay [6] concerns the target UDP-galactopyranose mutase (Mycobacterium tuberculosis, UniProt P9WIQ1). The experiment in a line: Inhibitors of Mycobacterium tuberculosis UDP-galactopyranose mutase (UGM) enzyme Measured in Biochemical System Using Plate Reader - 2105-02_Inhibitor_Dose_CherryPick_Activity. [Related pubchem assays (depositor defined):AID504439].
The next assay concerns the target Keap1/Nrf2 (Homo sapiens, UniProt Q14145). Briefly: disruptors of Keap1 binding to Nrf2 peptide – biochemical, fluorescence polarization, cherry-picked samples, dose response (AID 588683). For orientation: In fluorescence polarisation assays a small probe gives low polarisation when free and higher when bound to something large.
Assay [7] concerns the target Probable nicotinate-nucleotide adenylyltransferase (Staphylococcus aureus (strain N315), UniProt P65502). Format: functional, Staphylococcus aureus subsp. aureus N315.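 Note: confirmatory retest of primary uHTS inhibitor hits against NadD over a range of doses.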
Assay [8] deals with Heat shock protein HSP 90-alpha (Homo sapiens, UniProt P07900). In kind it is functional, organism-based.
A further assay concerns the target T2, Caspase-3 (Homo sapiens, UniProt P42574).
T2 sequence (P42574 whole entry): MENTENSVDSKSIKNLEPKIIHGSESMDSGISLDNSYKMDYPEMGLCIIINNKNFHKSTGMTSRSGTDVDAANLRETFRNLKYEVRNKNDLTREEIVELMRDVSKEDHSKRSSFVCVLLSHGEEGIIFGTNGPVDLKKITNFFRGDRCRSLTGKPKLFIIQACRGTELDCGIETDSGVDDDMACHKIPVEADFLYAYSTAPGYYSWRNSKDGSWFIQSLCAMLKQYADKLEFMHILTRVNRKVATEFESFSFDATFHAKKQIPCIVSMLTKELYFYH
The experiment in a line: Dose-response confirmation of uHTS inhibitor hits of Sentrin-Specific Protease 8 in a Caspase-3 Fluorescence assay. In kind it is functional.

In assay [9] the target is T3, High affinity choline transporter 1 (Homo sapiens, UniProt Q9GZV3).
T3 sequence (Q9GZV3 whole entry): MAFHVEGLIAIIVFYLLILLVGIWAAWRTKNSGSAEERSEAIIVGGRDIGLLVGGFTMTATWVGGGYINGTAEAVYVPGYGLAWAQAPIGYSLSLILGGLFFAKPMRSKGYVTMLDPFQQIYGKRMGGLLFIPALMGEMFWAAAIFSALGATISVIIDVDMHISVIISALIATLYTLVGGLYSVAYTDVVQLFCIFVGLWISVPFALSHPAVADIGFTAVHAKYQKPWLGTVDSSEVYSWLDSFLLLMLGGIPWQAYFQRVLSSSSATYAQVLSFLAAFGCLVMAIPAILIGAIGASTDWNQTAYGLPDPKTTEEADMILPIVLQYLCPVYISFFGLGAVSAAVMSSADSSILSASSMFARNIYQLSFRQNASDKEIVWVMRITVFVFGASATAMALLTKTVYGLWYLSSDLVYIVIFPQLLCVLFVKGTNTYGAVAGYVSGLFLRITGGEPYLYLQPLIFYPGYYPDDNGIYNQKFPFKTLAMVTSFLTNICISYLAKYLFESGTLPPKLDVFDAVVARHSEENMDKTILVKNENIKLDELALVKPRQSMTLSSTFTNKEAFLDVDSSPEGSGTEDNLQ
Briefly: human choline transporter blockers, potency – cell-based, 5-point CRC, membrane potential dye, dose response (AID 504840). Format: functional.

SMILES strings stand for the structures. Where “and” joins values, the source holds several entries; their conditions need not be identical. Identical values can stand only once. Calls of active or inactive are those of the source. Some results are limits rather than exact numbers.

Chain of Protein-tyrosine kinase 2-beta (Q14289 whole entry): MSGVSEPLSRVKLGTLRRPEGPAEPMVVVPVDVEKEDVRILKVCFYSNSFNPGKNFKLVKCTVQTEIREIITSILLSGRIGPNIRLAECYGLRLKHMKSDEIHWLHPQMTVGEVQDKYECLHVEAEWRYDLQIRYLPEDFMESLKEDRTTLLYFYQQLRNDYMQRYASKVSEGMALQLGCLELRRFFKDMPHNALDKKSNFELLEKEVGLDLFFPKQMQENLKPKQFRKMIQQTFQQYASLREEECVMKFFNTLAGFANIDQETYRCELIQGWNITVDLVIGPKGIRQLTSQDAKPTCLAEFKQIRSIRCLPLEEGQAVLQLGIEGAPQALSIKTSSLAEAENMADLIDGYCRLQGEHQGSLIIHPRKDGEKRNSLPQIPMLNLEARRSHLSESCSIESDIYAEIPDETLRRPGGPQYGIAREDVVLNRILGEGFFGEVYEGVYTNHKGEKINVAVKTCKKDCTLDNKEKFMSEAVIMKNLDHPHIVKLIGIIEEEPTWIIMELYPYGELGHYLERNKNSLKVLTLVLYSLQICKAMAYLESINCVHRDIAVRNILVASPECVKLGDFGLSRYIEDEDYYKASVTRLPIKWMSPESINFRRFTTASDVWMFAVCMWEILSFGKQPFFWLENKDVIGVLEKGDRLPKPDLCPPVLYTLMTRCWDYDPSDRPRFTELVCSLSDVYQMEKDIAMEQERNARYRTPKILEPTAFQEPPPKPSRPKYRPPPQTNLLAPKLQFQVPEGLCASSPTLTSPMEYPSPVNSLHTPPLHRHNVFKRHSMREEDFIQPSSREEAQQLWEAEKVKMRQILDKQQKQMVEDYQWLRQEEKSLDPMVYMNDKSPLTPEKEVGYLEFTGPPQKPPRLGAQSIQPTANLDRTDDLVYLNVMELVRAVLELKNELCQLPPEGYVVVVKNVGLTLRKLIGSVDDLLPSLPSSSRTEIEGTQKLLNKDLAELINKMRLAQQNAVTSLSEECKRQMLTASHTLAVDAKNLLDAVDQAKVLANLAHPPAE
Chain of Keap1/Nrf2 (Q16236 whole entry): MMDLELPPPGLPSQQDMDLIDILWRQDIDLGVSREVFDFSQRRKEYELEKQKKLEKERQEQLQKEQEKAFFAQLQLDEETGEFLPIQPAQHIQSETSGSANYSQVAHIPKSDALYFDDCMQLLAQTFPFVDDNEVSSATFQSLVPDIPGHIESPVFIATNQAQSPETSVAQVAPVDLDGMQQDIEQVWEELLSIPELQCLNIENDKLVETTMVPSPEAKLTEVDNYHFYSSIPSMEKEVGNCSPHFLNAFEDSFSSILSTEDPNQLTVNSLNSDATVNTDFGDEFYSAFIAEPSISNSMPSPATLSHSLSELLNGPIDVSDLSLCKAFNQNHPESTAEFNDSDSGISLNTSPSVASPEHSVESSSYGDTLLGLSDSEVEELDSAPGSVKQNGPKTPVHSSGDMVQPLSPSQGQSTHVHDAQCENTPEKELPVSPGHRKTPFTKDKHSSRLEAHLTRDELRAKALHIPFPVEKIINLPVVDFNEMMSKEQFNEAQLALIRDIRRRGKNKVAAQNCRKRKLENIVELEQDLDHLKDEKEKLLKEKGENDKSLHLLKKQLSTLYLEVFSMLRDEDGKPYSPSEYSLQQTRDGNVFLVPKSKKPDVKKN
Chain of Keap1/Nrf2 (Q14145 whole entry): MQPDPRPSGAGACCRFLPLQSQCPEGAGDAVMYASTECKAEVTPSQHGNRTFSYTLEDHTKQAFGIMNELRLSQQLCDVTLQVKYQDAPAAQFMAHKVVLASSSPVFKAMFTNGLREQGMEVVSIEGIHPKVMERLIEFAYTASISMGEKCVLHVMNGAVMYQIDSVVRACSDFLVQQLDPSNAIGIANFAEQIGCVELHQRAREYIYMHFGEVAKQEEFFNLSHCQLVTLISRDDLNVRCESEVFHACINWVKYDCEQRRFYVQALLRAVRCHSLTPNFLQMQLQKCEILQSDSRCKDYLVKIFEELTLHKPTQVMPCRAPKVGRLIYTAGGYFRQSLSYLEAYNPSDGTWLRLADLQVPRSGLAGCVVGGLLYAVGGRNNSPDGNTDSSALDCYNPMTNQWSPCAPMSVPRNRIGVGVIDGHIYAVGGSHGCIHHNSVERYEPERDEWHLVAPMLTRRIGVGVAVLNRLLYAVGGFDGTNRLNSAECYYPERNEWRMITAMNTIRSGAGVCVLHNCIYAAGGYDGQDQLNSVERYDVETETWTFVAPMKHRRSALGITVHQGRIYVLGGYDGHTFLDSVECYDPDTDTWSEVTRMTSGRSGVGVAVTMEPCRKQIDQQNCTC
Chain of Dual specificity protein phosphatase 3 (P51452 whole entry): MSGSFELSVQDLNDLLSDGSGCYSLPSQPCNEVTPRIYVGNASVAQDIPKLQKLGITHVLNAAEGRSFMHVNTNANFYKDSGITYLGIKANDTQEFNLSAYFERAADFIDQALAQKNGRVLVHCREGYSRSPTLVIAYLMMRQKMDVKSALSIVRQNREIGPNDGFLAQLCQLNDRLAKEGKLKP
Chain of Probable nicotinate-nucleotide adenylyltransferase (P65502 whole entry): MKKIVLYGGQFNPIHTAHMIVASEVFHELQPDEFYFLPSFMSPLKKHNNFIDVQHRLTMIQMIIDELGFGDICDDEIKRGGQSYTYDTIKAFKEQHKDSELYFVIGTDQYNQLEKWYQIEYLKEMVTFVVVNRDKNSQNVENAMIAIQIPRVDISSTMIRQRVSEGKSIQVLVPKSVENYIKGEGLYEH
Chain of UDP-galactopyranose mutase (P9WIQ1 whole entry): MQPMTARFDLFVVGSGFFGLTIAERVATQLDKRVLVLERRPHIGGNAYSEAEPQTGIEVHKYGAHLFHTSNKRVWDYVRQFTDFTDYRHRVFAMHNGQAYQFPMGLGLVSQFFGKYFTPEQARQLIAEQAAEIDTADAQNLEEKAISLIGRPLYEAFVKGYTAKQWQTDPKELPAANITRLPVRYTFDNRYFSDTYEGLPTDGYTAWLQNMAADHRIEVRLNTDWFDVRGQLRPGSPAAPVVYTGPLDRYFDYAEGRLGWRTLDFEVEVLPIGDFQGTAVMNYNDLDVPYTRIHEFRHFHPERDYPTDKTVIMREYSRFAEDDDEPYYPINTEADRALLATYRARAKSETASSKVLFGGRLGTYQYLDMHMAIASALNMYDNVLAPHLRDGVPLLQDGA

Broadly, the EC50 is the midpoint of the concentration-response curve. As a reminder, the IC50 is the concentration that gives 50% inhibition. For `Cc1oc2c(c1C(=O)c1ccccc1)C(=O)C(=O)c1ccccc1-2`, the values for the EC50 in assay [1] and in assay [3] were > 120 µM (not active) and 63.2 µM (inactive), respectively. Besides, the IC50 in assay [2] is recorded as > 69.5 µM (not active).

For `O=C(O)COc1ccc(/C=N/NC(=O)c2ccc(-c3csc(Nc4ccc(Cl)cc4)n3)cc2)cc1`, the IC50 in [4] is 2.52 µM (active).

A word on the AC50: it is the concentration at which the activity in the assay is half-maximal. Take `Nc1ccc2nc3c(O)nc(S)nc3nc2c1`: the IC50 in [5] was 14 µM (active); in assay [7], 7.46 µM (active). Besides, the AC50 on ORF 73 was 3.62 µM (active); in assay [6], 3.57 µM (active); on Keap1/Nrf2 it was 3.55 µM (active).

For the molecule `CCN1/C(=C/c2ccc3cc(C)ccc3[n+]2CC)Sc2cc(C)c(C)cc21`, the half-maximal activity concentration (AC50) in [8] was 4.16 µM (active) and 2.67 µM (active). The 50% effective concentration (EC50) in “cells” was 0.046 µM (active).

Regarding `COc1cc(NCCCNC(C)C)c2nccc(C)c2c1`, the 50% inhibitory concentration (IC50) at Caspase-3 is 13.8 µM (active).

As for `CC(/C=C1\SC(=S)N(NS(=O)(=O)c2ccccc2)C1=O)=C\c1ccccc1`, in assay [9], the IC50 was 9.12 µM (active).

The values are drawn from ChEMBL document CHEMBL1201862, “PubChem BioAssay data set” (2004).
